Data on 1 compound can be found in patent publication US8067042B1 (Mutual Pharmaceutical Company, Inc., priority 2007, dated 2011).

One data set has as its target CYP2C19 (Homo sapiens, UniProt P33261).
For data set [1], the system named is CYP2E1.
Description: (§1) The stock solutions were added to incubation mixtures to obtain the final concentrations of 5 and 50 μM, each containing 1% acetonitrile.
(§2) After a 5 minute preincubation, nicotinamide adenine dinucleotide phosphate (NADPH) regenerating system (NRS; 1.7 mg/mL β-NADP, 7.8 mg/mL glucose-6-phosphate, and 6 units/mL glucose-6-phosphate dehydrogenase in 2% sodium bicarbonate solution) was added to initiate the reaction. The final incubation volume was 0.5 mL. Incubations were continued for 60 minutes.
(§3) All incubations were conducted at 37±1° C. in a shaking water bath. All incubations were carried out in triplicates.
(§4) After a 5-minute preincubation, 2% sodium bicarbonate solution was added to the incubation mixtures. The final incubation volume was 0.5 mL. Incubations were continued for 60 minutes.
(§5) Incubation reactions, including the matrix controls and metabolic negative controls, were terminated by adding 0.5 mL methanol.
(§6) The samples were analyzed on a Supelcosil LC-18 column (3μ, 120 Å, 3.0×100 mm).
The target in data set [2] is CYP2E1 (Homo sapiens, UniProt P05181). Format: in vitro ADME. On the set-up: purchased BD Biosciences Discovery Labware, Woburn, Mass; host or cells: baculovirus-infected insect cells. Conditions: 50 μM megestrol acetate, 20 pmol CYP2E1.
Another data set addresses T1, CYP2B6 (Homo sapiens, UniProt P20813).
T1 sequence (P20813 1-491): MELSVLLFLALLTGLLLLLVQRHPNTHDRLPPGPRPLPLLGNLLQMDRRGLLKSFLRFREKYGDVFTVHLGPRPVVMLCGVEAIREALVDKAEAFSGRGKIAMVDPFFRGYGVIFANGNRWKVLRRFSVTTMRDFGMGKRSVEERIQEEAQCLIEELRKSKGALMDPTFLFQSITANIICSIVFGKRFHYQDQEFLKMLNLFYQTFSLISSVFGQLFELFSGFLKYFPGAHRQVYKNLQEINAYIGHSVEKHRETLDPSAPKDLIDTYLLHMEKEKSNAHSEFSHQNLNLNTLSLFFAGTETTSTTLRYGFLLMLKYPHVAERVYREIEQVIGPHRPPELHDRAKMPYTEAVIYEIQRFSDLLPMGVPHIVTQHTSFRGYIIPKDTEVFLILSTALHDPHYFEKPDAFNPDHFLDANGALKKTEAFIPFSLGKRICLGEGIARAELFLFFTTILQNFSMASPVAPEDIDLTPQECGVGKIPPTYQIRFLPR
Conditions: 50 μM (with 1% methanol). As to the method:
All incubations were carried out in triplicates.

Where [3] appears, read: human, microsomes, 60 min, pH 7.4.

CYP2C19, sequence (P33261 whole entry): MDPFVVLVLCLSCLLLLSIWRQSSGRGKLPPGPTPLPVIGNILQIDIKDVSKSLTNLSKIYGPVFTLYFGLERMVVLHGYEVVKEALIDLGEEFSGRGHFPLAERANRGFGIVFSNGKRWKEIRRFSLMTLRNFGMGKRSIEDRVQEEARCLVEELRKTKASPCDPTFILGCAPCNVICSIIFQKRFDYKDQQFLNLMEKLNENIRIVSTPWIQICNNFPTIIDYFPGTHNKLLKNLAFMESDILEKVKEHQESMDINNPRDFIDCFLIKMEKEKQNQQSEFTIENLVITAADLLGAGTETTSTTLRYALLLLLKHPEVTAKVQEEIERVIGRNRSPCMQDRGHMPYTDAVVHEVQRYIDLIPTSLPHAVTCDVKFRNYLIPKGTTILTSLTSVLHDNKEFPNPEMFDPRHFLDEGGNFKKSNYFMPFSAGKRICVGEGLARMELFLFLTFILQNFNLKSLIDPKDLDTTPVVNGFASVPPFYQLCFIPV
CYP2E1 (Homo sapiens, UniProt P05181), sequence (P05181 whole entry): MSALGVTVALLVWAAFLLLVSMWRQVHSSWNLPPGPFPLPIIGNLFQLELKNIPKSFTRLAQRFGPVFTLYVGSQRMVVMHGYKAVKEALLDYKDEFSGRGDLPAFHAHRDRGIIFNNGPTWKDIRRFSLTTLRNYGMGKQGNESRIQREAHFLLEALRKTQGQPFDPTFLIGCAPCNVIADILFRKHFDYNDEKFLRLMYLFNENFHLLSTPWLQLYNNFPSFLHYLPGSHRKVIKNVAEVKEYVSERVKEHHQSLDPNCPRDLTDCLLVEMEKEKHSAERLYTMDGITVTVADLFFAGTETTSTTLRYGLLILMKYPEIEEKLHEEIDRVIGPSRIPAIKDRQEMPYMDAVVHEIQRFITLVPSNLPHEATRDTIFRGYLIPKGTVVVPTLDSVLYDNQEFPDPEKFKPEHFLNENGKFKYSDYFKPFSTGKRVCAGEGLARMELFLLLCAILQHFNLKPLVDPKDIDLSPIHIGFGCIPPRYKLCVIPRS
Description for CYP2C19: as §1
Microsomes were prepared by differential centrifugation of liver homogenates pooled from at least ten human donors.
as §2, §3, §4, §5, §6

With `CC(=O)O[C@]1(C(C)=O)CC[C@H]2[C@@H]3C=C(C)C4=CC(=O)CC[C@]4(C)[C@H]3CC[C@@]21C` [Megestrol Acetate, 17 α-acetyloxy-6-methylpregna-4,6-diene-3,20-dione], the “percent metabolized in presence vs absence of inhibitor (unpaired two-tailed t-test)” value on CYP2C19 is recorded as “not different from the percentage of megestrol acetate metabolized in the absence of the inhibitor”; with CYP2E1 [1], “less than that of the percentage of megestrol acetate metabolized in the absence of the inhibitor”; in the data set on CYP2C8, “less than that of the percentage of megestrol acetate metabolized in the absence of the inhibitor”. For the same compound, the “metabolized in pooled human liver microsomes” value at CYP2C19 (setting [3]), in the data set with CYP2E1 [1] (setting [3]) and in the data set with CYP2C8 (setting [3]) was greater than 20% each time. In addition, the results for the “Percent of Parent Disappearance Individual” value in the data set on CYP2C8 (50 μM (with 100 μM Quercetin)) and at CYP2B6 were 7.51% and 54.8%, respectively. At CYP2E1 [2], the metabolites formed result is reported as “no metabolites were detected”.
